Like-named read-outs stand apart in the source and are kept apart here.
Assays:
Bel-7402 = experiment: In vitro cytotoxicity, IC50 by MTT method, Bel-7402; format: cell-based
Procedure, shortened: (§1)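 Cells in RPMI1640 with 10% FBS at 37° C, 5% CO2 were seeded at 10^5/ml and exposed to a compound concentration gradient for 48 h, at least three replicates, solvent controls.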

PLA-801 = experiment: In vitro cytotoxicity, IC50 by MTT method, PLA-801; format: cell-based
Procedure, shortened: as §1

NIH3T3 = experiment: In vitro cytotoxicity, IC50 by MTT method, NIH3T3; format: cell-based
Procedure, shortened: as §1

Kunming mice = settings: summary Table 34, compounds marked *, results [153] of the previous tests; in mg/kg; cited from earlier work
Lewis lung cancer = settings: comparison table 43, in vivo, Lewis lung cancer;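 note: mice implanted subcutaneously in the axilla with Lewis lung tumor cells, treated starting the following day, killed roughly three weeks after implantation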
Excerpt: There was one group of 8 to 10 mice C57BL/6 and Kunming mice for the anti-tumor tests and two groups of mice for negative control.
(3) Sources of tumors: Lewis lung cancer cells and S180 sarcoma in mice, which were sub-cultured and maintained by Pharmacological Center of Shanghai Pharmaceutical Industrial Research Institute.
All samples were weighed and added a small amount of Tween-80 to facilitate dissolution during the experiment, and then 0.5% CMC-Na solution was gradually added to achieve the desired concentration. The volume for experiment was 0.5 ml/20 g mouse.
The medicaments were intraperitoneally administered once a day continuously for 10 days.
For the negative control group, a vehicle of the same volume was intraperitoneally administered once a day continuously for 10 days. For the positive control group, CTX was administered in the dosage of 30 mg/kg once a day continuously for 7 days.
In vivo anti-tumor subcutaneous vaccination in the axilla was employed. Wildly grown tumor source was taken under sterile conditions to form a cell suspension of about 1×10^7 ml by homogenization method. For a corresponding mouse host, the suspension was injected in the axilla in an amount of 0.2 ml/mouse. The next day, the medicaments were administered according to the design of the tests. About three weeks later, all the groups of animals were executed. The tumors were taken from the animals and weighed. The inhibition rate of tumors was calculated according to the following formula:
T: average tumor weight of treated group; C: average tumor weight of negative control group.

S180 sarcoma = settings: comparison table 43, in vivo, S180 sarcoma
Hela = experiment: In vitro cytotoxicity, IC50 by MTT method, Hela; format: cell-based
Procedure, shortened: as §1

CT-DNA [1] = experiment: UV absorption spectrum method with CT-DNA; format: binding; settings: CT-DNA 40 ug/ml, compound 20 uM, 37° C. for 2 h, OD at 260 nm
HepG2 = experiment: In vitro cytotoxicity, IC50 by MTT method, HepG2; format: cell-based, human
Procedure, shortened: as §1

BGC-823 = experiment: In vitro cytotoxicity, IC50 by MTT method, BGC-823; format: cell-based
Procedure, shortened: as §1

CT-DNA [2] = experiment: DNA thermal denaturation, determination of ΔTm; format: binding; settings: 20 uM compound, Tm of CT-DNA alone 61° C.
Procedure, shortened: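 CT-DNA at 15 ug/ml in PE buffer (1 mM Na2HPO4, 0.1 mM EDTA, pH 7.6), heated at 0.5° C./min from 25 to 95° C. Tm taken as hyperchromic transition mid-point; ΔTm = Tm of drug-DNA complex minus Tm of DNA alone, mean of three runs.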

Lovo = experiment: In vitro cytotoxicity, IC50 by MTT method, Lovo; format: cell-based
Procedure, shortened: as §1

HepG2 cells = experiment: FCM analysis of apoptosis of HepG2 cells; format: cell-based, human; settings: FIG. 6

SMILES: COc1ccc2c3ccnc(C)c3n(Cc3ccccc3)c2c1 [Compound 6, 9-benzyl-7-methoxy-1-methyl-β-carboline]
- IC50 (Bel-7402; Homo sapiens, Bel-7402, BeI7402, MTT, read-out: IC50): 60 µM
- IC50 (PLA-801; PLA-801, MTT, read-out: IC50): 60 µM
- IC50 (NIH3T3; Mus musculus, NIH3T3, MTT, read-out: IC50): 50 µM
- LD50 (Kunming mice): 147.82
- Inhibition rate (%) Lewis cancer (Lewis lung cancer): 46.9%
- Inhibition rate (%) S180 sarcomata (S180 sarcoma): 45.2%
- IC50 (Hela; Homo sapiens, Hela, MTT, read-out: IC50): 270 µM
- Influence on the UV absorption of DNA (CT-DNA [1]): reduce the UV absorption of DNA
- IC50 (HepG2; Homo sapiens, HepG2, MTT, read-out: IC50): 90 µM
- IC50 (BGC-823; Homo sapiens, BGC-823, BGC823, MTT, read-out: IC50): 100 µM
- ΔTm (CT-DNA [2]; CT-DNA 15 ug/ml, PE buffer pH 7.6): 10.3 °C
- ΔTm (CT-DNA [2]; CT-DNA thermal denaturation): 10.3 °C
- IC50 (Lovo; Homo sapiens, Lovo, MTT, read-out: IC50): 50 µM

SMILES: CCOC(=O)c1cc2c3ccccc3n(Cc3c(F)c(F)c(F)c(F)c3F)c2c(C)n1 [Compound 60, ethyl 9-(2′,3′,4′,5′,6′-pentafluoro)benzyl-1-methyl-β-carboline-3-carboxylate]
- IC50 (Bel-7402; Bel7402 cell strain, read-out: IC50 Bel7402): 100 µM
- IC50 (PLA-801; PLA-801 cell strain, read-out: IC50 PLA-801): 50 µM
- IC50 (NIH3T3; NIH3T3 cell strain, read-out: IC50 NIH3T3): 40 µM
- IC50 (Hela; Hela cell strain, read-out: IC50 Hela): 20 µM
- Apoptosis of HepG2 cells (FCM analysis) (HepG2 cells): apoptosis of HepG2 cells induced
- IC50 (HepG2; HepG2 cell strain, read-out: IC50 HepG2): 30 µM
- IC50 (BGC-823; BGC823 cell strain, read-out: IC50 BGC823): 4 µM
- IC50 (Lovo; Lovo cell strain, read-out: IC50 Lovo): 40 µM

From US20090227619A1, “Harmine derivatives, intermediates used in their preparations, preparation processes and use therefo” (priority 2003, published 2009)
